Measured values as given in PMC8377175, “Antidiabetic effect of bio-enhanced preparation of turmeric in streptozotocin-nicotinamide induced type 2 diabetic Wistar rats” (Journal of Ayurveda and Integrative Medicine, 2021).
Marks after values point to notes of the source that are not given here.

Legend:
[1] = system: streptozotocin-nicotinamide induced type 2 diabetic Wistar rats; assay: HOMA2 calculator: insulin resistance, insulin sensitivity, beta-cell function, and their correlation with serum insulin; assay type: in vivo; settings: 30 days, mean ± SD
Method: FBG, OG1 and OG2 values were estimated from blood drops that were obtained from rat tail tip using Accu-Check Glucometer. […] These serum samples were stored at −80 °C before insulin levels were assayed using DRG Rat insulin ELISA Kit. […] One-way ANOVA followed by post hoc analysis with Tukey test was conducted to evaluate statistically significant differences in the study variables between treatment groups. Pearson two-tailed correlation analysis was used to evaluate the correlation between serum insulin and IR; serum insulin and %B; and serum insulin & %S. SPSS version 21.0 was used to conduct statistical analysis in this study.

[2] = system: streptozotocin-nicotinamide induced type 2 diabetic Wistar rats; assay: Fasting blood glucose and oral glucose tolerance test in STZ-NA diabetic rats; assay type: in vivo; settings: mean ± SD; for OG1 (OGTT 60 min), Day 29 Readings (after treatment) / OG2 (OGTT 120 min), Day 29 Readings (after treatment) / OG1 (OGTT 60 min), Day 1 Readings (baseline) / OG2 (OGTT 120 min), Day 1 Readings (baseline): glucose 2 g/kg; for OG1 (OGTT 60 min), Day 29 Readings (after treatment) / OG2 (OGTT 120 min), Day 29 Readings (after treatment) / FBG, Day 29 Readings (after treatment) / FBG, Day 1 Readings (baseline) / OG1 (OGTT 60 min), Day 1 Readings (baseline) / OG2 (OGTT 120 min), Day 1 Readings (baseline): n = 6; for FBG, Day 1 Readings (baseline): Day 1 baseline (4th day after induction); for OG1 (OGTT 60 min), Day 1 Readings (baseline) / OG2 (OGTT 120 min), Day 1 Readings (baseline): Day 1 baseline; for Day 30 FBG: 30 days
Method: This study was done at the Department of Pharmacology, Kasturba Medical College, […] Academy of Higher Education, […]. The diabetic model that we have used in this study was STZ-NA model. DM was induced in male Wistar rats by giving NA and STZ injections, intraperitoneally. […] Citrate buffer (0.1 M), which has been used as solvent for mixing STZ, was made by dissolving solution of trisodium citrate (294.10 mg in 100 mL of distilled water) with citric acid solution (210.10 mg in 100 mL of distilled water) to attain pH 4.5. Ice was kept around the glass beaker containing Citrate buffer to maintain citrate buffer at lower temperatures. Normal control rats were administered with Citrate buffer alone intraperitoneally. […] Wistar rats were divided into seven groups, each group had six rats. Treatment for all the groups was started on the 4th day after diabetes induction procedure. The same was considered as Day 1 for treatment and continued for 30 days. The animals were treated for 30 days. The treatment schedule of various groups were as follows: Normal control (NC) (1 mL of 1% Tween 80, per oral), Diabetic control (DC) (1 mL of 1% Tween 80, per oral), two Standard control groups were treated with GLIB (5 mg/kg, per oral) and MET (500 mg/kg, per oral), two test groups were treated with bio-BTE (30 mg/kg, per oral and 60 mg/kg, per oral) and one test group was treated with RTE (30 mg/kg, per oral). The vehicle used for the study in all the groups were 1% Tween 80. Oral feeding of drugs was done using steel oral gavage tube (16 G, 7.6 cm). During the treatment period, rats also received standard pelleted chow (VRK Nutritional solutions) and water ad libitum during treatment. […] FBG, OG1 and OG2 values were estimated from blood drops that were obtained from rat tail tip using Accu-Check Glucometer. […] These serum samples were stored at -80 °C before insulin levels were assayed using DRG Rat insulin ELISA Kit.

[3] = system: streptozotocin-nicotinamide induced type 2 diabetic Wistar rats; assay: Fasting serum insulin (DRG Rat insulin ELISA Kit) in STZ-NA diabetic rats; assay type: in vivo; settings: 30 days, mean ± SD
Method: Wistar rats were divided into seven groups, each group had six rats. Treatment for all the groups was started on the 4th day after diabetes induction procedure. The same was considered as Day 1 for treatment and continued for 30 days. The animals were treated for 30 days. The treatment schedule of various groups were as follows: Normal control (NC) (1 mL of 1% Tween 80, per oral), Diabetic control (DC) (1 mL of 1% Tween 80, per oral), two Standard control groups were treated with GLIB (5 mg/kg, per oral) and MET (500 mg/kg, per oral), two test groups were treated with bio-BTE (30 mg/kg, per oral and 60 mg/kg, per oral) and one test group was treated with RTE (30 mg/kg, per oral). The vehicle used for the study in all the groups were 1% Tween 80. Oral feeding of drugs was done using steel oral gavage tube (16 G, 7.6 cm). […]
FBG was estimated in all rats before administration of STZ and NA and had FBG level less than 126 mg/dl. […] FBG values were measured at 0 min (before glucose administration) and OGTT readings (OG1 and OG2) were measured at 60 and 120 min after administration of glucose solution. […] On Day 30 of treatment, FBG was measured and after anaesthetizing rats with ether, blood was collected from overnight fasted rats using cardiac puncture into red-coloured procoagulant vacutainers and centrifuged at 3000 rpm for 7 min to obtain serum. […]

Body weight measurement = assay type: in vivo, Wistar rats; settings: for Body weight, Day 1: Day 1 of treatment (baseline), in g (unit assumed); for Body weight, Day 1 / Body weight, Day 30: mean ± SD; for Percentage change in body weight on Day 30 when compared to baseline, Gain (+)/Loss (−) / Body weight, Day 30: 30 days
Method: Wistar rats were divided into seven groups, each group had six rats. Treatment for all the groups was started on the 4th day after diabetes induction procedure. The same was considered as Day 1 for treatment and continued for 30 days. The animals were treated for 30 days. The treatment schedule of various groups were as follows: Normal control (NC) (1 mL of 1% Tween 80, per oral), Diabetic control (DC) (1 mL of 1% Tween 80, per oral), two Standard control groups were treated with GLIB (5 mg/kg, per oral) and MET (500 mg/kg, per oral), two test groups were treated with bio-BTE (30 mg/kg, per oral and 60 mg/kg, per oral) and one test group was treated with RTE (30 mg/kg, per oral). The vehicle used for the study in all the groups were 1% Tween 80. Oral feeding of drugs was done using steel oral gavage tube (16 G, 7.6 cm). During the treatment period, rats also received standard pelleted chow (VRK Nutritional solutions) and water ad libitum during treatment.
Body weight of the rats was measured before induction (on the day of induction), on Day 1 of treatment and also on Day 30 of treatment. Percentage change in body weight was calculated using the formula (BodyweightonDay30oftreatment−BodyweightonDay1oftreatment)/(BodyweightonDay1oftreatment)×100

**Q.** With `COc1ccc(Cl)cc1C(=O)NCCc1ccc(S(=O)(=O)NC(=O)NC2CCCCC2)cc1` [GLIB, Glibenclamide] as the compound, how does the “Day 30 Beta cell function (%B)” value ([1]; GLIB 5 mg/kg per oral) read?
**A.** 183.13 ± 68.69^b %

**Q.** What about the “Day 30 Insulin Resistance (IR)” value ([1]; GLIB 5 mg/kg per oral) of the same compound?
**A.** 2.70 ± 0.84^abd

**Q.** What about the “Day 30 Insulin Sensitivity (%S)” value ([1]; GLIB 5 mg/kg per oral) of the same compound?
**A.** 41.08 ± 16.03%

**Q.** And the “OG1 (OGTT 60 min), Day 29 Readings (after treatment)” value ([2]; GLIB 5 mg/kg per oral daily)?
**A.** 154.17 ± 76.55^b mg/dL

**Q.** What about the “OG2 (OGTT 120 min), Day 29 Readings (after treatment)” value ([2]; GLIB 5 mg/kg per oral daily) of the same compound?
**A.** 117.50 ± 16.21^b mg/dL

**Q.** And the “FBG, Day 29 Readings (after treatment)” value ([2]; GLIB 5 mg/kg per oral daily)?
**A.** 95.17 ± 27.97^b mg/dL

**Q.** What about the “FBG, Day 1 Readings (baseline)” value ([2]; GLIB 5 mg/kg per oral group) of the same compound?
**A.** 130.5 ± 5.43^a mg/dL

**Q.** What about the “OG1 (OGTT 60 min), Day 1 Readings (baseline)” value ([2]; GLIB 5 mg/kg per oral group) of the same compound?
**A.** 420.67 ± 21.71^a mg/dL

**Q.** And the “OG2 (OGTT 120 min), Day 1 Readings (baseline)” value ([2]; GLIB 5 mg/kg per oral group)?
**A.** 358.50 ± 34.65^a mg/dL

**Q.** And the “Day 30 FBG” value ([2]; GLIB 5 mg/kg per oral)?
**A.** 96.67 ± 26.49^b mg/dL

**Q.** What about the “Day 30 Serum Insulin” value ([3]; GLIB 5 mg/kg per oral) of the same compound?
**A.** 145.68 ± 41.06^abd pmol/L

**Q.** And the “Body weight, Day 1” value (Body weight measurement; GLIB 5 mg/kg per oral group)?
**A.** 179.67 ± 3.08

**Q.** And the “Percentage change in body weight on Day 30 when compared to baseline, Gain (+)/Loss (−)” value (Body weight measurement; GLIB 5 mg/kg per oral)?
**A.** +23%

**Q.** And the “Body weight, Day 30” value (Body weight measurement; GLIB 5 mg/kg per oral)?
**A.** 221 ± 8.07^abcd

**Q.** With `CN(C)C(=N)N=C(N)N` [MET, Metformin] as the compound, how does the “Day 30 Beta cell function (%B)” value ([1]; MET 500 mg/kg per oral) read?
**A.** 42.03 ± 37.09^acd %

**Q.** And the “Day 30 Insulin Resistance (IR)” value ([1]; MET 500 mg/kg per oral)?
**A.** 0.73 ± 0.31^bc

**Q.** What about the “Day 30 Insulin Sensitivity (%S)” value ([1]; MET 500 mg/kg per oral) of the same compound?
**A.** 160.70 ± 68.64^abcd %

**Q.** And the “OG1 (OGTT 60 min), Day 29 Readings (after treatment)” value ([2]; MET 500 mg/kg per oral daily)?
**A.** 329.33 ± 12.91^abd mg/dL

**Q.** What about the “OG2 (OGTT 120 min), Day 29 Readings (after treatment)” value ([2]; MET 500 mg/kg per oral daily) of the same compound?
**A.** 203.67 ± 58.96^b mg/dL

**Q.** And the “FBG, Day 29 Readings (after treatment)” value ([2]; MET 500 mg/kg per oral daily)?
**A.** 144.83 ± 53.86^b mg/dL

**Q.** What about the “FBG, Day 1 Readings (baseline)” value ([2]; MET 500 mg/kg per oral group) of the same compound?
**A.** 128.33 ± 5.32^a mg/dL

**Q.** What about the “OG1 (OGTT 60 min), Day 1 Readings (baseline)” value ([2]; MET 500 mg/kg per oral group) of the same compound?
**A.** 421.67 ± 39.52^a mg/dL

**Q.** What about the “OG2 (OGTT 120 min), Day 1 Readings (baseline)” value ([2]; MET 500 mg/kg per oral group) of the same compound?
**A.** 301.50 ± 64.05^a mg/dL

**Q.** What about the “Day 30 FBG” value ([2]; MET 500 mg/kg per oral) of the same compound?
**A.** 141.00 ± 52.33^abcd mg/dL

**Q.** And the “Day 30 Serum Insulin” value ([3]; MET 500 mg/kg per oral)?
**A.** 35.63 ± 16.81^c pmol/L

**Q.** What about the “Body weight, Day 1” value (Body weight measurement; MET 500 mg/kg per oral group) of the same compound?
**A.** 183.67 ± 7.82

**Q.** And the “Percentage change in body weight on Day 30 when compared to baseline, Gain (+)/Loss (−)” value (Body weight measurement; MET 500 mg/kg per oral)?
**A.** −12.07%

**Q.** And the “Body weight, Day 30” value (Body weight measurement; MET 500 mg/kg per oral)?
**A.** 161.5 ± 7.74^acd
